In ChEMBL document CHEMBL1201862, “PubChem BioAssay data set” (2004):
Active and inactive are the calls of the source.

Columns and labels:
Hexokinase HKDC1 = molecular target: T1, Hexokinase HKDC1 (Homo sapiens, UniProt Q2TB90); test: SAR analysis of small molecule inhibitors of hexokinase domain containing I (HKDC1). [Related pubchem assays (depositor defined):AID493160, AID493190]; format: functional
T1 sequence (Q2TB90 whole entry): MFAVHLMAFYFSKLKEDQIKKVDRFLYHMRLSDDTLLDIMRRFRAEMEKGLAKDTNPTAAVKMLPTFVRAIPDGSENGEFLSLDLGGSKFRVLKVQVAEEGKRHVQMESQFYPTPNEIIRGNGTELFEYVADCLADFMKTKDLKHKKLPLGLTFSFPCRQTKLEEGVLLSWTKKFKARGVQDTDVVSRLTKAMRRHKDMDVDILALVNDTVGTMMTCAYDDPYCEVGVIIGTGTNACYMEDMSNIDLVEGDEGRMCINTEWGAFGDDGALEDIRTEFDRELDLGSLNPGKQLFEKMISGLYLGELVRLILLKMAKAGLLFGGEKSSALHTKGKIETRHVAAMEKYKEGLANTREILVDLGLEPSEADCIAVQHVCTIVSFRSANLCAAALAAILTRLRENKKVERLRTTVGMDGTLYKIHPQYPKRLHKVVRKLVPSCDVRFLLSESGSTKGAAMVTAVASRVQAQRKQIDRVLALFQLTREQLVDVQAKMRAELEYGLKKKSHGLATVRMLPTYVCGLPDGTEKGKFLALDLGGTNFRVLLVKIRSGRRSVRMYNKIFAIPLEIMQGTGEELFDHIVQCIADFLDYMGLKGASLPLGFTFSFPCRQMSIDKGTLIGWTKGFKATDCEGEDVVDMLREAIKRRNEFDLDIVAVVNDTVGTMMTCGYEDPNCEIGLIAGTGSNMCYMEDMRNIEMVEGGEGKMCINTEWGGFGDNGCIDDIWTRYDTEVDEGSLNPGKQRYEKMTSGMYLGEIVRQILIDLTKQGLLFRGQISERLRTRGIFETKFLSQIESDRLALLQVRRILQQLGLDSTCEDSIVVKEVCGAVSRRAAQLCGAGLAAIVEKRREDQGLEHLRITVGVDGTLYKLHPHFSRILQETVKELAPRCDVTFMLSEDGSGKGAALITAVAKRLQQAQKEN

Hexokinase-1 = molecular target: T2, Hexokinase-1 (Homo sapiens, UniProt P19367); test: SAR analysis of small molecule inhibitors of hexokinase domain containing I (HKDC1) in the hexokinase 1 selectivity assay. [Related pubchem assays (depositor defined):AID493160, AID493190]; format: functional
T2 sequence (P19367 whole entry): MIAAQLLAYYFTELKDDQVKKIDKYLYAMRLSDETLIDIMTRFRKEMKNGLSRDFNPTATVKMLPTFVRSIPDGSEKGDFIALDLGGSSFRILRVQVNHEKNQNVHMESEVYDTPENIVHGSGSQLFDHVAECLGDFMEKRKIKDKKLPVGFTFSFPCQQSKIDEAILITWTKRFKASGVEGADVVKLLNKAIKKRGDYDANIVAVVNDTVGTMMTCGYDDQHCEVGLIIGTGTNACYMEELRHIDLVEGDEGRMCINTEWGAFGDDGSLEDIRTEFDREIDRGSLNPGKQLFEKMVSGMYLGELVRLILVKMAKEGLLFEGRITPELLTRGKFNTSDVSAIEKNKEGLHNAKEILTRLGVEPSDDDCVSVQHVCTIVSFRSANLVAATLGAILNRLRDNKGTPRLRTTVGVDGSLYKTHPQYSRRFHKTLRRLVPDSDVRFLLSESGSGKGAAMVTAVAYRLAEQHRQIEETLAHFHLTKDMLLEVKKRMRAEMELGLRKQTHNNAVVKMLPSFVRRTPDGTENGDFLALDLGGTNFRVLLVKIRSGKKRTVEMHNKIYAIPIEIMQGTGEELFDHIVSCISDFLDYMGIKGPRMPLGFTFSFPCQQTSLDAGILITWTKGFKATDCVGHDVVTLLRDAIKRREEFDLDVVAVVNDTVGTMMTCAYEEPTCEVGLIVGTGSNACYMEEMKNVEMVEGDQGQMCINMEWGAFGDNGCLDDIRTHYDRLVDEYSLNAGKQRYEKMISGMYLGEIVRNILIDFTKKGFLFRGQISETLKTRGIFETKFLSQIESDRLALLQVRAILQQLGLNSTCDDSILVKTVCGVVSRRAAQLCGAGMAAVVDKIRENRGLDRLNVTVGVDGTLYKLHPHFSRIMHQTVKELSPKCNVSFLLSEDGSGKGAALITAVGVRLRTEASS

[1] = inhibitors of SNCA 5'UTR-driven reporter translation, confirmation, H4 neuroglioma cells, luminescence (AID 1988); format: functional, cell-based
[2] = inhibitors of firefly luciferase expression or activity, dose response, H4 neuroglioma cells, luminescence (AID 1990); format: functional, cell-based
[3] = Luminescence Cell-Based Dose Response HTS to Identify Inhibitors of 5'UTR Stem-Loop Driven Prion Protein mRNA Translation in H4 Neuroglioblastoma Cells. [Related pubchem assays: 1827 (Project Summary), 1813 (Primary HTS)]; format: functional
HEK293 = test: inhibitors of LMP1-driven NF-kB reporter, dose response, cell-based, HEK293, luciferase, cherry-pick (AID 588343); format: functional; conditions: Homo sapiens
Jurkat = test: antigen receptor-induced NF-kB inhibitors, dose response, Jurkat, luciferase reporter, luminescence, B- and T-cell (AID 489004); format: functional, cell-based; conditions: Homo sapiens;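 also: NF-kB luciferase reporter Jurkat cells stimulated with PMA plus ionomycin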
[4] = cytotoxicity in HEK-293T NF-kB-Luc cells, dose response, cytotoxicity control for B/T-cell NF-kB inhibitor project, cell-based, uHTS hits (AID 489019); format: functional;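 also: IC50 reflects cytotoxicity as loss of cell viability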
[5] = A Cell Based Secondary Assay To Explore Cytotoxicity of Compounds that Sensitize Mycobacterium Tuberculosis to Beta-Lactam Antibiotics.; format: functional
[6] = HEK293T cell cytotoxicity, dose response, cytotoxicity control for HIV Vif inhibitor project, cherry-picks (AID 652208); format: functional, cell-based
[7] = molecular target: T3, Polyadenylate-binding protein 1 (Homo sapiens, UniProt P11940); test: PABP1 MLLE–PAM2 interaction inhibitors, dose response, miRNA deadenylation inhibitor project, biochemical, fluorescence polarization, Cy5-PAM2 peptide, secondary (AID 602260); format: functional; conditions: read-out: IC50_Mean
Keap1/Nrf2 = Keap1/Nrf2 (Homo sapiens, UniProt Q14145); test: Keap1-Nrf2 protein-protein interaction inhibitors, dose response, biochemical, fluorescence polarization, cherry-picked samples (AID 588683)
Albumin = Albumin (Bos taurus, UniProt P02769); test: Counterscreen for inhibitors of T-cell receptor (TCR)-CD3 interaction: Fluorescence-based biochemical high throughput dose response assay to identify inhibitors of T-cell receptor (TCR)-CD3 interaction using a TAMRA-labeled BSA probe.; format: functional
[8] = HeLa cell cytotoxicity, dose response, cytotoxicity control for MgcRacGAP inhibitor project (AID 624300); format: functional
[9] = molecular target: T4, Histone-lysine N-methyltransferase NSD2 (Homo sapiens, UniProt O96028); format: biochemical
T4 sequence (O96028 whole entry): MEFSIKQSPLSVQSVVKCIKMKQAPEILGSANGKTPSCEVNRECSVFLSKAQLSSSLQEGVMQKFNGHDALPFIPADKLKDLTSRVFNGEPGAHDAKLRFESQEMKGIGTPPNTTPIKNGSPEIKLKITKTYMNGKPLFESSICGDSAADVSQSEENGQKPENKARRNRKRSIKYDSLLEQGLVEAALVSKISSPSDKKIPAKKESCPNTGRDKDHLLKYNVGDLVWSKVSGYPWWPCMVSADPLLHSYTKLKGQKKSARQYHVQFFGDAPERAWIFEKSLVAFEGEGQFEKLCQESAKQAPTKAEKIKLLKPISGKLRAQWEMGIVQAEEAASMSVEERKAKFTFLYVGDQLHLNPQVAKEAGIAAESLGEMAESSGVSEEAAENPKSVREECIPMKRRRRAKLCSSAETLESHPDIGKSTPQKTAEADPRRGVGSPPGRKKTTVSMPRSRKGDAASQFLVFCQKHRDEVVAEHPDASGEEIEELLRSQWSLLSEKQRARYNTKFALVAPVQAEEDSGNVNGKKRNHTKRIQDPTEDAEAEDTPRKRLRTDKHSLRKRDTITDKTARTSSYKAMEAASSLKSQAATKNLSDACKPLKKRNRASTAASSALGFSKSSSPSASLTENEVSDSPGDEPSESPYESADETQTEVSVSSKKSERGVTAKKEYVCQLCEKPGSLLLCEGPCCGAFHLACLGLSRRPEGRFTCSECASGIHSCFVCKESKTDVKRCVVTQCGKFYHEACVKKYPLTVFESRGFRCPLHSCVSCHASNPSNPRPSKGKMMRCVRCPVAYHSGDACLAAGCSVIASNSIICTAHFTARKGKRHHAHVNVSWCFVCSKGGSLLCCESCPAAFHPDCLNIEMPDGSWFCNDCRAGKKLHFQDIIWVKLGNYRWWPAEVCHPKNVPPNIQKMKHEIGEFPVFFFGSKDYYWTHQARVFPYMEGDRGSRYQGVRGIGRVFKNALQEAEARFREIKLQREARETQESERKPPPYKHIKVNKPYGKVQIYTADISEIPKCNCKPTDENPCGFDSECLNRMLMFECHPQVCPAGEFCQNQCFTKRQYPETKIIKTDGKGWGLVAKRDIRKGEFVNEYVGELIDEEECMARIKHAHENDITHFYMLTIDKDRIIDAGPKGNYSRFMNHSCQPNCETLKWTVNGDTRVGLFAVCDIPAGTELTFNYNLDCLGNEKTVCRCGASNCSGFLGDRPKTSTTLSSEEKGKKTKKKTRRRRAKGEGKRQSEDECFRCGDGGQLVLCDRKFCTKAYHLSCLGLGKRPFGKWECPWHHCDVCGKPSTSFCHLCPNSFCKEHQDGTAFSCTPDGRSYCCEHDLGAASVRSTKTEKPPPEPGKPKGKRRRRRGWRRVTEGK

Vero = Vero cell cytotoxicity, cytotoxicity control for flavivirus capping enzyme inhibitors (AID 588742); format: functional; conditions: Chlorocebus sabaeus
Genome polyprotein = Genome polyprotein (dengue virus type 2, UniProt P29990); test: Dengue-2 NS5 methyltransferase inhibitors, primary screen, biochemical, confirmation dose response (AID 588689); format: functional
[10] = molecular target: T3, Polyadenylate-binding protein 1; test: PABP1 MLLE–PAM2 binding inhibitor potency, dose response, biochemical, fluorescence polarization, FITC-PAM2 peptide (AID 602259); format: functional; conditions: read-out: IC50_Mean
[11] = molecular target: T5, High affinity choline transporter 1 (Homo sapiens, UniProt Q9GZV3); test: CHT inhibitors, dose response, cell-based, 10-point CRC, membrane potential dye (AID 588401); format: functional;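 also: membrane potential dye fluorescence of choline-evoked depolarization via CHT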
T5 sequence (Q9GZV3 whole entry): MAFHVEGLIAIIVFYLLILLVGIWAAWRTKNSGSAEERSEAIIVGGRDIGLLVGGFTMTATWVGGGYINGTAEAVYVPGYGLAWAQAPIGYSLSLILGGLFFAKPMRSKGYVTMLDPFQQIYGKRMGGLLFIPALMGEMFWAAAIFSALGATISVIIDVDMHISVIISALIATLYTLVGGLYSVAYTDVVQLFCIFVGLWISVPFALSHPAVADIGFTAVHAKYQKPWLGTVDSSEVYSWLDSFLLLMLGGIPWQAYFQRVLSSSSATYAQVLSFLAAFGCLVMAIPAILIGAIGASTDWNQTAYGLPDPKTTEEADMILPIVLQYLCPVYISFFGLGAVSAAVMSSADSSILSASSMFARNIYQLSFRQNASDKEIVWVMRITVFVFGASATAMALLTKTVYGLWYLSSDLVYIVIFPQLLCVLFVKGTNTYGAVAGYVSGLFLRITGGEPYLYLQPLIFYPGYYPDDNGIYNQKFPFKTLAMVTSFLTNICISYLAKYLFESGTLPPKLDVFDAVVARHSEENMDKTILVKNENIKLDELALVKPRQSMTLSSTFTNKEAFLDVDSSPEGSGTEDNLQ

[12] = molecular target: T5, High affinity choline transporter 1; test: CHT inhibitors, dose response, cell-based, 5-point CRC, membrane potential dye (AID 504840); format: functional

T3 sequence (P11940 whole entry): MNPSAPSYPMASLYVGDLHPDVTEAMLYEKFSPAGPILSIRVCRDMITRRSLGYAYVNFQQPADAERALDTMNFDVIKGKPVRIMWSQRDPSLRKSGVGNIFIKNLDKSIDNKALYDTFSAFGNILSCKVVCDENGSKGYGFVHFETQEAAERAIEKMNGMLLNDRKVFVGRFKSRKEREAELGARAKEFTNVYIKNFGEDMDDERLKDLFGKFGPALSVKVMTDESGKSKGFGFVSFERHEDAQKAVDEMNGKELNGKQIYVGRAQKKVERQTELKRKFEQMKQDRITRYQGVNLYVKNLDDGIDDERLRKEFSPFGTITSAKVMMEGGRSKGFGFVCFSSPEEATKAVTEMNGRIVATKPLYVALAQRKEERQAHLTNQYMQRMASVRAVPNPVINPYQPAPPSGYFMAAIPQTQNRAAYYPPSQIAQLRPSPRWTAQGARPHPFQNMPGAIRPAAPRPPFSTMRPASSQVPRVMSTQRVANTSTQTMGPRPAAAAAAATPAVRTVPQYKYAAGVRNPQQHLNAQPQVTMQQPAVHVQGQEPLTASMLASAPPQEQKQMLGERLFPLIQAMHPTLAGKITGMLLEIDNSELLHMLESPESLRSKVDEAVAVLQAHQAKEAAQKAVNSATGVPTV
Chain of Albumin (P02769 whole entry): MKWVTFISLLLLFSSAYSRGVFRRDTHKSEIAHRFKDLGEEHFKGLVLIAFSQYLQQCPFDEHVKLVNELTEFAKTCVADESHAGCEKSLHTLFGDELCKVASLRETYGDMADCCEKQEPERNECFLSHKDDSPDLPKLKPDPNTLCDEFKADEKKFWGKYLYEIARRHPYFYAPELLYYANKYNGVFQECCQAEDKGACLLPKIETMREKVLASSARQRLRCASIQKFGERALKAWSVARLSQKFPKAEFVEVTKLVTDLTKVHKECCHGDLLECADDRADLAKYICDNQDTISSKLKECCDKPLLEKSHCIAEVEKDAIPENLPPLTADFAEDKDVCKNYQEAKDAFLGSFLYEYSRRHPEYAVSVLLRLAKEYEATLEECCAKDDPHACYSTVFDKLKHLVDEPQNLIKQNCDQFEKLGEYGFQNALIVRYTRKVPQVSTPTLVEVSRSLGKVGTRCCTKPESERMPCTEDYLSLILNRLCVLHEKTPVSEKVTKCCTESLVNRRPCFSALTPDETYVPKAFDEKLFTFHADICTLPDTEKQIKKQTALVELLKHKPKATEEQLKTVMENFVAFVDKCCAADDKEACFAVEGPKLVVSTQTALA
Chain of Keap1/Nrf2 (Q16236 whole entry): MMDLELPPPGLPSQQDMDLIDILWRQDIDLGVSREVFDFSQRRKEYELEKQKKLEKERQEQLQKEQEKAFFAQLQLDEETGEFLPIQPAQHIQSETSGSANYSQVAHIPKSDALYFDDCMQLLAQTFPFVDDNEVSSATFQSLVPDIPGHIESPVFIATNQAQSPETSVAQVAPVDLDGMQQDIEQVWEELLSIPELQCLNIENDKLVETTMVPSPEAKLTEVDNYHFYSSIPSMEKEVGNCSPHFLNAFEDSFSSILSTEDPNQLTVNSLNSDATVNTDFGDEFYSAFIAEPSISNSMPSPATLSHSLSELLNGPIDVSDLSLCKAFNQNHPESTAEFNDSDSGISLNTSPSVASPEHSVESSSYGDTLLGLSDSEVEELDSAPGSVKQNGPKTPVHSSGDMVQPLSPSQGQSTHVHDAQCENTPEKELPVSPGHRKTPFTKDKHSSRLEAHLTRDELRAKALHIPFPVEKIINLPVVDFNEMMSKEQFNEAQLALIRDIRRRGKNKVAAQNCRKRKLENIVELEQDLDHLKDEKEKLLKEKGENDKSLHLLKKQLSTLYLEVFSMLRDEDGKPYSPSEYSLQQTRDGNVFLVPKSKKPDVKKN
Chain of Keap1/Nrf2 (Q14145 whole entry): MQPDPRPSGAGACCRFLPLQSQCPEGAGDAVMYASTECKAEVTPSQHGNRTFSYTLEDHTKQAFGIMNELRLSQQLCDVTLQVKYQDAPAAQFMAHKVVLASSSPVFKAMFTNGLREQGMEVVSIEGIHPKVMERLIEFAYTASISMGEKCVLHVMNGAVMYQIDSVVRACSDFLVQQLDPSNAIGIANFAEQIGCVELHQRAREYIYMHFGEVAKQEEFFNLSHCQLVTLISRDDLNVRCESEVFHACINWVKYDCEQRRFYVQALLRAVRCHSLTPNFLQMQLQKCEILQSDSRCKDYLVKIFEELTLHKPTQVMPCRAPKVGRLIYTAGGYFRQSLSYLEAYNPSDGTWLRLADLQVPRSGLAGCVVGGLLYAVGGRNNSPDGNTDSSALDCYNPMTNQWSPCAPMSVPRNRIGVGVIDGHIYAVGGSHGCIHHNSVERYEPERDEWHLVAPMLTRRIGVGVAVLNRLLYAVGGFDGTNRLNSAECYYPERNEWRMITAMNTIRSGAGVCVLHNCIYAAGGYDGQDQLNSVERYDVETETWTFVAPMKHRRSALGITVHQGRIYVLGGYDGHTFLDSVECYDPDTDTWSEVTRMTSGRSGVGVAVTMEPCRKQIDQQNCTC
Chain of Genome polyprotein (P29990 2492-3391 limits assumed): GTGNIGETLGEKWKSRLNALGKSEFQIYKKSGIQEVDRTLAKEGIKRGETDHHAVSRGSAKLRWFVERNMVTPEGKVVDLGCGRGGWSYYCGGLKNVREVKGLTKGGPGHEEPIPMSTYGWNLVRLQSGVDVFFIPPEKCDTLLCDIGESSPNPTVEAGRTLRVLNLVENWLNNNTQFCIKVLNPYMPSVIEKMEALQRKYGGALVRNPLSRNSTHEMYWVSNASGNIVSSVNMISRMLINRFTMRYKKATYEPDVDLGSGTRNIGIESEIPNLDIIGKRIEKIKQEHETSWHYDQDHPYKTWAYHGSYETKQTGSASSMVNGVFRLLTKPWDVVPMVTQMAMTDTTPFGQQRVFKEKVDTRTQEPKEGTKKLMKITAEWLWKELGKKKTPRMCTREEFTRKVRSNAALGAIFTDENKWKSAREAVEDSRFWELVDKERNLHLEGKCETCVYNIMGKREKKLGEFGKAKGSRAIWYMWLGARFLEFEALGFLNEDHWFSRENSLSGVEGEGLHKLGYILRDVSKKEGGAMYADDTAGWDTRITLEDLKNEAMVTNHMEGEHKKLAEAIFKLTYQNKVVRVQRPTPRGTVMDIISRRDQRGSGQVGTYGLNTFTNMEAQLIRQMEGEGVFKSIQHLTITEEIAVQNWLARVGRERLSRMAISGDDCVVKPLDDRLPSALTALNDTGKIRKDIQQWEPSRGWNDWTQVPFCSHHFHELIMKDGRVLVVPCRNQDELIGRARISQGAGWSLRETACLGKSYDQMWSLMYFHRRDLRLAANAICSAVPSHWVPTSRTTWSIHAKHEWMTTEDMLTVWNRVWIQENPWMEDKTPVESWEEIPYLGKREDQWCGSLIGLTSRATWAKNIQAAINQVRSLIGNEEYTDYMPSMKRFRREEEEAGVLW

## O=C(Nc1cccc(C(F)(F)F)c1)c1cccc(NC(=O)c2ccccn2)c1
Hexokinase HKDC1
  IC50: > 80 µM (inactive)
Hexokinase-1
  IC50: > 80 µM (inactive)

## CCc1cc2c(Sc3nc4ccccc4s3)ncnc2s1
[1]
  EC50: 3.87 µM (active)
[2]
  EC50: > 120 µM (not active)
[3]
  EC50: 16.3 µM (active)
HEK293
  AC50: 4.9 µM (active)
Jurkat
  IC50: < 0.16 µM (active)
[4]
  IC50: > 80 µM (inactive)
[5]
  CC50: 30.2 µM (active)
[6]
  AC50: > 52 µM (inactive)

## COc1ccc(Cn2c(/C=C/c3cccnc3)nc3ccccc3c2=O)cc1
Hexokinase HKDC1
  IC50: > 80 µM (inactive)
Hexokinase-1
  IC50: > 80 µM (inactive)

## O=C1C(Cl)=C(N2CCN(CCO)CC2)C(=O)c2c(O)ccc(O)c21
[7]
  IC50: > 66 µM (inactive)
Keap1/Nrf2
  AC50: > 52 µM (inactive)
Albumin
  IC50: 29.1 µM (inactive)
[8]
  CC50: 12.9 µM (active)
[9]
  AC50: 4.44 µM (active)
Vero
  CC50: 2.85 µM (active)
Genome polyprotein
  IC50: 4.58 µM (active)
[10]
  IC50: 60.6 µM (inactive)

## O=c1c2ccccc2nc(/C=C/c2ccc(F)cc2)n1Cc1ccccc1
Hexokinase HKDC1
  IC50: > 80 µM (inactive)
Hexokinase-1
  IC50: > 80 µM (inactive)

## CC1=NOC(=O)/C1=C/c1ccc(O)c(Cl)c1
[11]
  IC50: 3.57 µM (active)
[12]
  IC50: 6.99 µM (active)
